Laboratory results taken from article PMC4199632, “Exploring the Anti-Cancer Activity of Novel Thiosemicarbazones Generated through the Combination of Retro-Fragments: Dissection of Critical Structure-Activity Relationships” (PLoS ONE, 2014).

Experiments:
[1] = tested on: HCT116 p53+/+ colon cancer cells; assay: Proliferation assay (MTS, 96 h); format: cell-based, human; conditions: for IC50: Homo sapiens, HCT-116, 96 h incubation, MTS, mean ±SD (3 experiments)
Protocol: (§1) The human cancer cell types (neuroepithelioma (SK-N-MC), colon cancer (HCT116 with wild-type p53 (p53^+/+)), Burkitt's lymphoma (Raji) and cervical carcinoma (HeLa)) cells and normal human dermal fibroblasts (NHDF) were obtained from the American Type Culture Collection (ATCC, Manassas, VA, USA). HCT116 null p53 (p53^−/−) cells were obtained from the Maria Sklodowska-Curie Memorial Cancer Center and Institute of Oncology, Poland.
(§2) The SK-N-MC cells were cultured in minimum essential medium (MEM; Life Technologies, Grand Island, New York, USA) containing 10% (v/v) fetal bovine serum (FBS; Life Technologies), 1 mM sodium pyruvate (Life Technologies), 1% (v/v) non-essential amino acids (Life Technologies), 2 mM L-glutamine (Life Technologies), 100 U/mL penicillin (Life Technologies), 100 µg/mL streptomycin (Life Technologies) and 0.28 µg/mL fungizone (Bristol Myers Squibb Pharmaceuticals, Montreal, Canada). The HCT116 and NHDF cells were grown in Dulbecco's modified Eagle's medium (DMEM; Sigma-Aldrich) supplemented with 12% (v/v) heat-inactivated FBS (HCT116; Life Technologies) or 15% (v/v) FBS (NHDF; Life Technologies), 100 µg/mL of gentamicin (Polfa Warszawa S.A., Warsaw, Poland), 100 µg/mL of streptomycin (Polfa) and 100 U/mL of penicillin (Polfa). The Raji and HeLa cells were cultured in Roswell Park Memorial Institute medium (RPMI-1640; Sigma-Aldrich) with the addition of 10% (v/v) heat-inactivated FBS (Life Technologies) and the supplements described for SK-N-MC cells above. All cell lines were cultured under standard conditions at 37°C in a humidified atmosphere at 5% CO2 and were subcultured every 3–4 days as required.
(§3) The cells were seeded in 96-well plates (SK-N-MC: 1.5×10^4 cells/well; HeLa: 5.0×10^3 cells/well; Raji: 3.0×10^3 cells/well; HCT116: 3.5×10^3 cells/well; NHDF: 3.0×10^3 cells/well) 24 h prior to the addition of the novel compounds. The assays were performed using a 72 h (SK-N-MC, Raji, HeLa) or 96 h (HCT 116, NHDF) incubation period with the agents at 37°C. […] Additionally, DFO and Dp44mT were included as positive controls in all experiments as their activity is well characterized, [42], [50].
(§4) Chelator stock solutions were prepared in DMSO and diluted in media so that the final [DMSO] <0.05%. The results were expressed as a percentage of the control and the resulting IC50 values were calculated using GraphPad Prism 5 (GraphPad Software, Inc., La Jolla, CA, USA). The IC50 was defined as the concentration necessary to reduce the absorbance to 50% of the untreated control. Each individual compound was tested in triplicate in a single experiment, with each experiment being repeated three times. After incubation of HCT 116 and NHDF cells with the tested compounds, 20 µL of the CellTiter 96 Aqueous One Solution - MTS (Promega, Madison, WI, USA) solution was added to each well (with 100 µL of DMEM without phenol red) and incubated for 1 h/37°C. The optical density of the samples was analyzed at 490 nm.

[2] = tested on: HCT116 p53−/− colon cancer cells; assay: Proliferation assay (MTS, 96 h); format: cell-based, human; conditions: for IC50: Homo sapiens, HCT-116, 96 h, 96 h incubation, MTS, mean ±SD (3 experiments)
Protocol: as §1, §2, §3, §4

[3] = tested on: Raji Burkitt's lymphoma cells; assay: Proliferation assay (MTT, 72 h); format: cell-based; conditions: Homo sapiens, 72 h incubation, mean ±SD (3 experiments)
Protocol: as §1, §2, §3, §4
(§5) MTT (3-[4,5-dimethylthiazol-2-yl]-2,5-diphenyltetrazolium bromide) was used to evaluate the anti-proliferative effects of the chelators in SK-N-MC and Raji cells. Following incubation with the investigated compounds, 10 µL of MTT (5 mg/mL in PBS; Sigma-Aldrich) was added to each well. After a 2 h (SK-N-MC) or 4 h (Raji) incubation, the plates were centrifuged, and the cells were lysed with 100 µL of 10% SDS-50% isobutanol in 0.01 M HCl (SK-N-MC) or DMSO (Raji). The absorbance was measured at 570 nm. The anti-proliferative effects of these novel agents on HeLa cells were estimated using crystal violet staining (0.5% crystal violet solution for 10 min). Finally, the wells were rinsed with water and the cells were lysed with 2% SDS. The optical density of the samples was analyzed at 595 nm.

[4] = tested on: SK-N-MC neuroepithelioma cells; assay: Proliferation assay (MTT, 72 h); format: cell-based; conditions: Homo sapiens, 72 h incubation, mean ±SD (3 experiments)
Protocol: as §1, §2, §3, §4, §5

[5] = tested on: HeLa cervical carcinoma cells; assay: Proliferation assay (crystal violet, 72 h); format: cell-based; conditions: Homo sapiens, 72 h incubation, mean ±SD (3 experiments)
Protocol: as §1, §2, §3, §4, §5

[6] = tested on: normal human dermal fibroblast (NHDF) cells; assay: Proliferation assay (MTS, 96 h), normal mortal cells; format: cell-based; conditions: Homo sapiens, NHDF, 96 h, 96 h incubation, mean ±SD (3 experiments)
Protocol: as §1, §2, §3, §4

[7] = Ascorbate oxidation assay (iron complexes); format: biochemical; conditions: iron complex; for Ascorbate oxidation (% of the control): FeIII 10 µM, ascorbate 100 µM
Protocol: The ability of the iron complexes of the novel ligands to mediate the oxidation of the physiological substrate, ascorbate, was examined using established methods, [18], [22], [52], [53]. Ascorbic acid (100 µM) was prepared immediately prior to each experiment and was incubated in the presence of Fe^III (10 µM; as FeCl3), the chelator (1–60 µM) and a 50-fold molar excess of citrate (500 µM). The absorbance at 265 nm was measured after 10 and 40 min and the difference in absorbance at these time points was calculated. The results of these experiments were expressed as iron-binding equivalents (IBE) due to the different denticity of the chelators examined. The chelators, Dp44mT, DFO and ethylenediaminetetraacetic acid (EDTA) were used as controls as the ability of their iron complexes to oxidize ascorbate has been extensively characterized, [15], [52], [53].
The ability of the iron complexes of the novel TSCs to catalyze the oxidation of the physiological substrate, ascorbate, was important to assess as redox cycling may play a critical role in their anti-proliferative activity, [15], [18], [52], [53]. Thus, the oxidation of ascorbate mediated by the iron complexes of series 1–6 were examined in comparison to the iron complexes of the control compounds, DFO, EDTA and Dp44mT, as the ability of the latter to oxidize ascorbate is well characterized, [15], [52], [53], [68]. The results were expressed as a percentage of the control (no chelator) at iron-binding equivalents (IBEs) of 0.1 (excess “free” iron), 1 (iron-chelator complexes with a fully filled coordination sphere), or 3 (excess free chelator), due to the different denticity of the chelators examined (Fig. 10).
Figure 10 Effect of the iron complexes of (A) series 1, (B) series 2, (C) series 3, (D) series 4, (E) series 5 and (F) series 6 chelators, relative to DFO, Dp44mT and EDTA, on ascorbate oxidation. Chelators at iron-binding equivalent (IBE) ratios of 0.1, 1, and 3 were incubated in the presence of Fe^III (10 µM) and ascorbate (100 µM). The UV-Vis absorbance at 265 nm was recorded after 10 and 40 min, and the difference between the time points was calculated. Results are mean ±SD (3 experiments).

[8] = tested on: HCT116 p53+/+, HCT116 p53−/−, Raji, HeLa, SK-N-MC and NHDF cells; assay: Proliferation assay, ranges stated over several cell-types; format: cell-based, human
Protocol: as §1, §2, §3, §4, §5

Row | SMILES | IC50 [1] [µM] | IC50 [2] [µM] | IC50 [3] [nM] | IC50 [4] [µM] | IC50 [5] [µM] | IC50 [6] [µM] | Ascorbate oxidation compared with controls ([7]; IBE 3) | Ascorbate oxidation (% of the control) ([7]; IBE 3) | Ascorbate oxidation (% of the control) ([7]; IBE 0.1) [%] | Ascorbate oxidation (% of the control) ([7]; IBE 1) [%] | IC50 ([8]; Homo sapiens, HCT-116, range over HCT116 p53+/+ and p53−/− cells and over the compounds named, read-out: IC50 range in HCT116 cells) [nM] | Therapeutic index, NHDF relative to HCT116 cells ([8]; range over HCT116 p53+/+ and p53−/− and over the compounds named) | Therapeutic index NHDF vs. HCT116 p53+/+ ([1]; NHDF cell IC50 divided by HCT116 p53+/+ IC50) | Therapeutic index NHDF vs. HCT116 p53−/− ([2]; NHDF cell IC50 divided by HCT116 p53−/− IC50)
1 | Oc1ccccc1/C=N/NC(=S)N1CCN(c2cnccn2)CC1 [6e] | 10.9 ± 0.7 | 10.7 ± 1 | 9830 ± 2050 | > 6.25 | 19.2 ± 2.5 | > 25 |  |  |  |  |  |  |  | 
2 | Oc1ccc2cccnc2c1/C=N/NC(=S)N1CCN(c2ccccn2)CC1 [4d] | 9.15 ± 1.19 | 6.84 ± 5.48 | 1550 ± 400 | 4.54 ± 1.6 | 2.73 ± 0.55 | 10.1 ± 2.7 |  |  |  |  |  |  |  | 
3 | CCN1CCN(C(=S)N/N=C/c2ccccc2O)CC1 [6a] | > 25 | > 25 | 10200 ± 6600 | > 6.25 | 22.1 ± 5.4 | > 25 | decreased ascorbate oxidation relative to the control |  |  |  |  |  |  | 
4 | CCN1CCN(C(=S)NN=C(c2ccccn2)c2ccccn2)CC1 [1a] | 0.02 ± 0.002 | 0.04 ± 0.003 | 80 ± 20 | 0.18 ± 0.09 | 0.48 ± 0.31 | 0.017 ± 0.004 |  |  |  |  |  |  |  | 
5 | S=C(N/N=C/c1cnc2ccccc2n1)N1CCN(c2ccccn2)CC1 [5d] | 9.4 ± 0.8 | 9.41 ± 1.04 | 490 ± 90 | 2.33 ± 0.09 | 1.78 ± 0.77 | 7.13 ± 0.82 | decreased ascorbate oxidation relative to the control |  |  |  |  |  |  | 
6 | S=C(N/N=C/c1ccc2ccccc2n1)N1CCN(c2cnccn2)CC1 [2e] | 0.088 ± 0.044 | 0.48 ± 0.15 | 290 ± 110 | 0.48 ± 0.1 | 1.56 ± 0.44 | 9.44 ± 3.84 |  | 200–265% |  |  |  |  |  | 
7 | S=C(N/N=C/c1cnc2ccccc2n1)N1CCN(c2cnccn2)CC1 [5e] | 5.73 ± 0.75 | 8.49 ± 3.05 | 270 ± 10 | 1.98 ± 0.68 | 3.77 ± 1.71 | 15.8 ± 5.1 | increased levels of ascorbate oxidation |  |  |  |  |  |  | 
8 | Oc1cccc2ccc(/C=N/NC(=S)N3CCN(c4ccccc4)CC3)nc12 [3b] | 4.18 ± 1.46 | 4.67 ± 2.04 | 190 ± 20 | > 6.25 | 8.45 ± 2.09 | 8.88 ± 1.07 |  |  |  |  |  |  |  | 
9 | Oc1cccc2ccc(/C=N/NC(=S)N3CCN(c4ccccn4)CC3)nc12 [3d] | 8.41 ± 1.78 | 8.46 ± 0.25 | 120 ± 40 | > 6.25 | 6.59 ± 0.13 | 10.2 ± 2.4 |  |  |  |  |  |  |  | 
10 | Oc1ccc2cccnc2c1/C=N/NC(=S)N1CCN(c2cnccn2)CC1 [4e] | 10.1 ± 0.7 | 9.44 ± 1.35 | 4550 ± 2520 | 4.17 ± 1.44 | 3.49 ± 0.04 | 9.56 ± 1.44 |  |  |  |  |  |  |  | 
11 | CCN1CCN(C(=S)N/N=C/c2ccc3cccc(O)c3n2)CC1 [3a] | 9.25 ± 1.42 | 8.83 ± 0.63 | 200 ± 20 | 0.82 ± 0.61 | 3.41 ± 1.46 | 15.8 ± 4.6 | increased levels of ascorbate oxidation |  |  |  |  |  |  | 
12 | O=C(O)CN(CCN(CC(=O)O)CC(=O)O)CC(=O)O [EDTA, ethylenediaminetetraacetic acid, reference compound] |  |  |  |  |  |  |  | 936% | 208 | 449 |  |  |  | 
13 | CN(C(=S)N/N=C/c1c(O)ccc2cccnc12)C1CCCCC1 [4f] | 19 ± 0.5 | 18.9 ± 3.6 | 460 ± 230 | > 6.25 | 13.3 ± 1 | 9.18 ± 3.68 |  |  |  |  |  |  |  | 
14 | S=C(N/N=C/c1ccc2ccccc2n1)N1CCOCC1 [2c] | 1.49 ± 0.02 | 1.56 ± 1.12 | 60 ± 10 | 1.4 ± 0.69 | 1.75 ± 0.33 | 3.27 ± 0.88 |  |  |  |  |  |  |  | 
15 | S=C(N/N=C/c1cnc2ccccc2n1)N1CCN(c2ccccc2)CC1 [5b] | 3.92 ± 0.74 | 2.24 ± 1.47 | 500 ± 50 | 3.44 ± 1.12 | 6.05 ± 2.73 | 9.61 ± 0.9 |  |  |  |  |  |  |  | 
16 | CCN1CCN(C(=S)N/N=C/c2cnc3ccccc3n2)CC1 [5a] | 6.15 ± 1.28 | 8.72 ± 1.64 | 110 ± 20 |  | 1.12 ± 0.03 | 2.73 ± 1.77 |  |  |  |  |  |  |  | 
17 | Oc1cccc2ccc(/C=N/NC(=S)N3CCOCC3)nc12 [3c] | 0.004 ± 0.002 | 0.017 ± 0.006 | 20 ± 10 | > 6.25 | 0.18 ± 0.07 |  |  |  |  |  | 2 to 17 | 18–2650 | 2650 | 624
18 | Oc1ccccc1/C=N/NC(=S)N1CCN(c2ccccn2)CC1 [6d] | 9.7 ± 2.5 | 10.6 ± 1.2 | 2600 ± 330 | 5.42 ± 0.64 | 16.4 ± 4.5 | 18.4 ± 1.9 | decreased ascorbate oxidation relative to the control |  |  |  |  |  |  | 
19 | Oc1ccc2cccnc2c1/C=N/NC(=S)N1CCN(c2ccccc2)CC1 [4b] | 7.45 ± 0.66 | 8.88 ± 2.53 | 2230 ± 1200 | 4.46 ± 0.78 | 4.38 ± 0.95 | 10.1 ± 1.2 |  |  |  |  |  |  |  | 
